Reference: paper PMC6244159, “Structure and Function Studies of Asian Corn Borer Ostrinia furnacalis Pheromone Binding Protein2” (Scientific Reports, 2018)

Target: T1, OfurPBP2 (Ostrinia furnacalis pheromone binding protein 2) (Ostrinia furnacalis, UniProt E7CCA0)
T1 construct: gene PBP2; full-length OfurPBP2, recombinant soluble (E. coli Origami 2), delipidated, pH 6.5
T1 sequence (E7CCA0 23-166): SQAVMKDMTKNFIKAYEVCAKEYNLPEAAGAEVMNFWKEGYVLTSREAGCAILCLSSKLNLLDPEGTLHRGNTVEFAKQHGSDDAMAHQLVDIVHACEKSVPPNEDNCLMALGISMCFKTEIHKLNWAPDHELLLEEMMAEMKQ
Experiment: fluorescence titration of the NPN probe (emission at […] nm), single-site fit

## c1ccc(Nc2cccc3ccccc23)cc1 [N-phenyl-1-naphthylamine]
  Kd: 6.49 ± 1.01 µM
